Some results are limits rather than exact numbers.

The subject of one series is intratumoral T cells. Kind of series: Biomarker analysis of on-treatment tumor biopsies. It counts as in vivo, human. As for the experimental part: (§1) Methods: In 2 ongoing dose-escalation phase I studies, CEA-TCB is given as monotherapy IV QW (S1) or in combination (QW) with atezolizumab 1200 mg Q3W (S2) in patients with advanced CEA positive (≥20% of tumor cells expressing moderate or high) solid tumors. In S1, 80 patients (70 CRC) were treated at dose levels of 0.05-600 mg; in S2, 45 patients (35 CRC) at 5-160 mg (data cut-off 3 Mar. 2017). In addition biomarker analysis and PK assays were conducted.

The test system of series [1] is advanced CEA positive solid tumors. In kind it is in vivo, human. As for the experimental part:
In S1, 80 patients (70 CRC) were treated at dose levels of 0.05-600 mg; in S2, 45 patients (35 CRC) at 5-160 mg (data cut-off 3 Mar. 2017). In addition biomarker analysis and PK assays were conducted.

A further series has as its system tumor cells. Conditions: preclinically; increased intratumoral T-cell infiltration and activation, T-cell-mediated tumor cell killing, PD-L1/PD-1 upregulation; cited from earlier work.
In another series the test system is IL-6. The experiment in a line: Biomarker analysis: IL-6 after administration. In kind it is in vivo, human. Conditions: most patients; after the first administration. As for the experimental part: as §1
Details of series [2]: species or system human. The settings on record: in vivo. As for the experimental part: as §1
For series [3], the system named is tumor inflammation-related adverse effects. The settings on record: preliminary data; confirmed PR and SD observed in patients given prophylaxis.

For “CEA-TCB: novel T-cell bispecific antibody targeting CEA on tumor cells and CD3 on T cells; polypeptides of SEQ ID NO: 25-28”, the “increase in Ki67+ T cells as compared to baseline” value in the series on intratumoral T cells (S1, doses ≥60 mg, OT biopsies, P=0.035, without dose-dependence) was determined as 3.6 fold. The “intratumoral CD8 T cells” value in the series with intratumoral T cells (on-treatment) is on record as “On-treatment increases”. Besides, the “tumor reduction of −10% to −30% (stable disease), share of patients” value in series [1] (S1 monotherapy, doses ≥60 mg, MSS CRC patients, 4 patients) was 13%. The “confirmed partial response (PR; RECIST v1.1), share of CRC patients” value in series [1] (S1 monotherapy, doses ≥60 mg, two of 31 evaluable CRC patients, both MSS) was 6%. Also, in series [1] (S1 monotherapy, weeks 4-6, 9 patients), the “metabolic PR (FDG PET; EORTC criteria), share of CRC patients” value stood at 29%. In addition, the “MTD (maximum tolerated dose)” value in series [1] (human, in vivo, iv) is reported as less than 600 mg. For the same compound, in series [1] (in vivo), the “patients with dose limiting toxicities (DLTs)” value is recorded as “Five”, the “related adverse event: diarrhea” value was determined as 40%, the “related adverse event: infusion-related reactions (IRRs)” value turned out to be 55% and the “related adverse event: pyrexia” value was determined as 58%. For the same compound, the “antitumor activity in advanced CRC” value in series [1] (monotherapy, during dose escalation) is on record as “Evidence of antitumor activity”. The preclinical antitumor activity result in the series on tumor cells is “potent antitumor activity”. In addition, the IL-6 change entry in the series on IL-6 is listed as “increases in IL-6”. The “effect of ADA on drug clearance” value in series [2] (human) is listed as “ADA increase CEA-TCB drug clearance”. The PK linearity result in series [2] was “almost linear PK”.

On to `C[C@]12C=CC(=O)C=C1CC[C@@H]1[C@@H]2C(=O)C[C@@]2(C)[C@H]1CC[C@]2(O)C(=O)CO` [prednisone], for which the “effect of prophylactic steroid doses on anti-tumor activity of CEA-TCB monotherapy or combination with atezolizumab” value in series [3] is recorded as “did not impair the anti-tumor activity”.

These data come from US20200199230A1, “TREATMENT METHOD” (Hoffmann-La Roche Inc., priority 2017, published 2020).
